In brackets after ≈: the same amount, converted by molar mass.
Key:
[1] = tested on: Neisseria meningitidis 8013 (C); assay: MIC of PBT2 (broth and agar)
Neisseria meningitidis = assay: MIC / susceptibility across Neisseria meningitidis strains; conditions: all strains tested; for MIC: Neisseria meningitidis
[2] = tested on: Neisseria gonorrhoeae ATCC49226; assay: MIC of PBT2 and comparators against CLSI reference strain; type: cell-based
Description: 13 multidrug resistant WHO strains of Neisseria gonorrhoeae were selected to cover antimicrobial resistance phenotypes to all the antibiotics currently used.

[3] = tested on: Neisseria gonorrhoeae WHO M; assay: MIC of PBT2 alone (broth and agar); type: cell-based
Description: (§1) 13 multidrug resistant WHO strains of Neisseria gonorrhoeae were selected to cover antimicrobial resistance phenotypes to all the antibiotics currently used. MS11 is a laboratory strain and ATCC49226 is a CLSI standard MIC control strain (CLSI. 2022. Performance Standards for Antimicrobial Susceptibility Testing, 32nd Edition. Clinical and Laboratory Standards Institute which is hereby incorporated by reference in its entirety). The MICs (minimum inhibitory concentration) of PBT2 alone in the absence of zinc or a further antimicrobial agent against these Neisseria gonorrhoea strains are summarised in Table 1.

[4] = tested on: Neisseria gonorrhoeae WHO N; assay: MIC of PBT2 alone (broth and agar); type: cell-based
Description: as §1

[5] = tested on: Neisseria gonorrhoeae WHO Y; assay: MIC of PBT2 alone (broth and agar); type: cell-based
Description: as §1

[6] = tested on: Neisseria gonorrhoeae WHO Z; assay: MIC of PBT2 alone (broth and agar); type: cell-based
Description: as §1

[7] = tested on: Neisseria gonorrhoeae WHO X; assay: MIC of PBT2 alone (broth and agar); type: cell-based
Description: as §1

[8] = tested on: Neisseria gonorrhoeae WHO F; assay: MIC of PBT2 alone (broth and agar); type: cell-based
Description: as §1

[9] = tested on: Neisseria gonorrhoeae WHO L; assay: MIC of PBT2 alone (broth and agar); type: cell-based
Description: as §1

[10] = tested on: Neisseria gonorrhoeae MS11; assay: MIC of PBT2 alone (broth and agar); type: cell-based
Description: as §1

[11] = tested on: Neisseria gonorrhoeae WHO K; assay: MIC of PBT2 alone (broth and agar); type: cell-based
Description: as §1

[12] = tested on: Neisseria gonorrhoeae WHO G; assay: MIC of PBT2 alone (broth and agar); type: cell-based
Description: as §1

[13] = tested on: Neisseria gonorrhoeae WHO C; assay: MIC of PBT2 alone (broth and agar); type: cell-based
Description: as §1

[14] = tested on: Neisseria gonorrhoeae WHO O; assay: MIC of PBT2 alone (broth and agar); type: cell-based
Description: as §1

[15] = tested on: Neisseria gonorrhoeae WHO E; assay: MIC of PBT2 alone (broth and agar); type: cell-based
Description: as §1

[16] = tested on: Neisseria gonorrhoeae WHO P; assay: MIC of PBT2 alone (broth and agar); type: cell-based
Description: as §1

[17] = cited from earlier work
[18] = tested on: Neisseria meningitidis PMC1 (X); assay: MIC of PBT2 (broth and agar)
[19] = tested on: Neisseria gonorrhoeae strain WHO Z; assay: Ex vivo Neisseria gonorrhoeae infection of human cervical (Pex) cells; type: cell-based
Description: FIG. 4: Chart indicating PBT2 can cure Neisseria gonorrhoeae infection of human cervical (Pex) cells. […] Ceftriaxone (CRO, positive control) is currently recommended for gonorrhoea treatment. Veh—0.1% DMSO vehicle control; UT—untreated; * p<0.0001 versus vehicle for CRO or PBT2 treatment.
To assess the ability of PBT2 to cure an established gonococcal infection in a human ex vivo system, primary human cervical epithelial (Pex) cells were challenged with Neisseria gonorrhoeae strain WHO Z for 90 min and then treated with 0.1% DMSO (vehicle control), PBT2 (0.016 mg/L to 4.695 mg/L), or ceftriaxone (0.5 mg/L, positive control) for 24 h. Viable gonococci were then enumerated. […] PBT2-induced Pex cell cytotoxicity was not observed during the assay.

Neisseria gonorrhoeae = assay: MIC / susceptibility across Neisseria gonorrhoeae strains; type: cell-based; conditions: for MIC: Neisseria gonorrhoeae
Description: as §1

[20] = tested on: Neisseria meningitidis MC58 (B); assay: MIC of PBT2 (broth and agar)
[21] = tested on: Neisseria meningitidis Z2491 (A); assay: MIC of PBT2 (broth and agar)
[22] = tested on: Streptococcus uberis (S. uberis); conditions: in the absence of an antibiotic; cited from earlier work
Helicobacter pylori = assay: Sensitivity across Helicobacter pylori strains; type: cell-based; conditions: strains tested
Description: The MIC of PBT2 against four Helicobacter pylori 26695 strains was determined. The strains tested were sensitive to PBT2.

[23] = tested on: Neisseria meningitidis PMC10 (Y); assay: MIC of PBT2 (broth and agar)
[24] = human; 250 mg/day for up to 72 hours; NCT02249728; cited from earlier work

CN(C)Cc1ccc2c(Cl)cc(Cl)c(O)c2n1 [PBT2, 5,7-dichloro-2-[(dimethylamino)methyl]quinolin-8-ol]
MIC ([1]; agar): 0.078 µg/mL | MIC ([1]; broth): 0.156 µg/mL | MIC (Neisseria meningitidis; agar): 0.039 to 0.156 µg/mL (≈ 0.144 to 0.575 µM) | MIC (Neisseria meningitidis; broth): 0.156 to 0.625 µg/mL (≈ 0.575 to 2.31 µM) | sensitivity (Neisseria meningitidis): sensitive | MIC ([2]; ATCC49226, ATCC49226, agar): 0.625 µg/mL | MIC ([2]; ATCC49226, ATCC49226, broth): 0.312 µg/mL | MIC ([3]; agar): 0.625 µg/mL | MIC ([3]; broth): 0.312 µg/mL | MIC ([4]; agar): 0.625 µg/mL | MIC ([4]; broth): 0.156 µg/mL | MIC ([5]; agar): 0.625 µg/mL | MIC ([5]; broth): 0.156 µg/mL | MIC ([6]; MIC concentration used in time-kill assay): 0.313 µg/mL | MIC ([6]; agar): 0.625 µg/mL | MIC ([6]; broth): 0.312 µg/mL | MIC ([7]; agar): 0.625 µg/mL | MIC ([7]; broth): 0.156 µg/mL | MIC ([8]; agar): 0.312 µg/mL | MIC ([8]; broth): 0.156 µg/mL | MIC ([9]; agar): 0.625 µg/mL | MIC ([9]; broth): 0.156 µg/mL | MIC ([10]; agar): 0.625 µg/mL | MIC ([10]; broth): 0.156 µg/mL | MIC ([11]; agar): 0.625 µg/mL | MIC ([11]; broth): 0.312 µg/mL | MIC ([12]; agar): 0.312 µg/mL | MIC ([12]; broth): 0.156 µg/mL | MIC ([13]; agar): 0.625 µg/mL | MIC ([13]; broth): 0.312 µg/mL | MIC ([14]; agar): 0.625 µg/mL | MIC ([14]; broth): 0.156 µg/mL | MIC ([15]; agar): 0.312 µg/mL | MIC ([15]; broth): 0.156 µg/mL | MIC ([16]; agar): 0.625 µg/mL | MIC ([16]; broth): 0.312 µg/mL | safety and tolerability ([17]; 250 mg daily for up to 12 months, without serious side effects or withdrawal symptoms): safe and well-tolerated, without serious side effects or withdrawal symptoms | safety ([17]; data from phase II clinical trials): safe-for-human-use | MIC [18]: 0.039 µg/mL | reduction in Neisseria gonorrhoeae survival ([19]; 24 h post-treatment, PBT2 0.016 to 4.695 mg/L, FIG. 4): dose-dependent reduction | effectiveness versus ceftriaxone (0.5 mg/L) ([19]; >0.157 mg/L PBT2, 24 h): comparable effectiveness to that observed for the control antibiotic, ceftriaxone | p versus vehicle ([19]; survival at 24 h, FIG. 4, CRO 0.5 mg/L): < 0.0001 | MIC (Neisseria gonorrhoeae; MDR Neisseria gonorrhoeae): 0.313 µg/mL (≈ 1.15 µM) | MIC (Neisseria gonorrhoeae; all strains tested, agar, PBT2 alone): 0.312 to 0.625 µg/mL (≈ 1.15 to 2.31 µM) | MIC (Neisseria gonorrhoeae; all strains tested, broth, PBT2 alone): 0.156 to 0.312 µg/mL (≈ 0.575 to 1.15 µM) | susceptibility (Neisseria gonorrhoeae; all strains tested, PBT2 alone): highly susceptible | MIC ([20]; agar): 0.039 µg/mL | MIC ([20]; broth): 0.156 µg/mL | MIC ([21]; agar): 0.039 µg/mL | MIC ([21]; broth): 0.156 µg/mL | antibacterial activity [22]: neither PBT2 nor zinc alone displayed antibacterial activity which would be suitable to treat an infection | sensitivity (Helicobacter pylori): sensitive | MIC ([23]; agar): 0.156 µg/mL | MIC ([23]; broth): 0.625 µg/mL | plasma drug level (AUC) [24]: 1,660 ng*h/ml

Source: US20260306476A1, “ANTIBACTERIAL COMPOUND PBT2” (priority 2022, published 2026)
